From publication PMC8158254, “Anion inhibition studies of the α-carbonic anhydrases from Neisseria gonorrhoeae” (Journal of Enzyme Inhibition and Medicinal Chemistry, 2021)
Like-named read-outs stand apart in the source and are kept apart here.

Target: T1, NgCA (Neisseria gonorrhoeae, UniProt Q50940)
T1 construct: gene cah
T1 sequence (Q50940 27-252): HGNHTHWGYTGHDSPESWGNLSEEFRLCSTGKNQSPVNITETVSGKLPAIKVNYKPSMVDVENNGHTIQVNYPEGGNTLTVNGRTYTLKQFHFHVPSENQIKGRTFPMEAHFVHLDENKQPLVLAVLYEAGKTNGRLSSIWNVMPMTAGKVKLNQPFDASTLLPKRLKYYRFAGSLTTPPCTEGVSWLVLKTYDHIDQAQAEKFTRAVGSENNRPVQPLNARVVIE
Test: biochemical

Compound	Ki (read-out: NgCA)	further results
O=NO [NO2^−]	590 µM	
N#CS [NCS^−]		Ki: 920 µM
N#C[SeH] [SeCN^−]	660 µM	
[O]=[Re](=[O])(=[O])[OH] [ReO4^−]	960 µM	
CCN(CC)C(=S)S [EtNCS2^−]	5.1 µM	
O=P(O)(O)OP(=O)(O)O [P2O7^2-]		Ki: 4900 µM
O=S(=O)(O)NS(=O)(=O)O [NH(SO3)2^2-]	250 µM	
O=S(O)O [HSO3^−]	660 µM	
[O-][Cl+3]([O-])([O-])O [ClO4^−]	> 100000 µM	
I [I^−]		Ki: 9600 µM
O=S(=O)(O)OOS(=O)(=O)O [S2O8^2-]	790 µM	
[O]=[V]([OH])([OH])[O][V](=[O])([OH])[OH] [V2O7^2-]	2800 µM	
O=[Te](=O)(O)O [TeO4^2-]	760 µM	
F [F^−]	8300 µM	
O=[Se](=O)(O)O [SeO4^2-]	870 µM	
O=[N+]([O-])O [NO3^−]	850 µM	
O=S(=O)(O)F [FSO3^−]	610 µM	
S [HS^−]	550 µM	
S=C(S)S [CS3^2-]	88 µM	
N#CO [NCO^−]	430 µM	
O=S(=O)(O)C(F)(F)F [CF3SO3^−]	5700 µM	
[O]=[Ru](=[O])(=[O])[OH] [RuO4^−]	1900 µM	
OB(O)c1ccccc1 [PhB(OH)2]	150 µM	
O=S(=O)(O)O [SO4^2-]		Ki: 830 µM
Cl [Cl^−]	4800 µM	
Br [Br^−]	4000 µM	
NS(=O)(=O)O [NH2SO3H]	24 µM	
F[P-](F)(F)(F)(F)F [PF6^−]		Ki (sodium salt, CO2 substrate, 10 mM Hepes pH 7.4, 10 mM NaClO4, 15 min preincubation at room temperature, read-out: hCA I): > 100000 µM
NS(N)(=O)=O [NH2SO2NH2]	58 µM	
